Assay type in all cases: cell-based
For test [1], the target named is T1, human muscarinic M4 receptor (Homo sapiens, UniProt P08173).
T1 construct: expressed in transfected cells
T1 sequence (P08173 1-479): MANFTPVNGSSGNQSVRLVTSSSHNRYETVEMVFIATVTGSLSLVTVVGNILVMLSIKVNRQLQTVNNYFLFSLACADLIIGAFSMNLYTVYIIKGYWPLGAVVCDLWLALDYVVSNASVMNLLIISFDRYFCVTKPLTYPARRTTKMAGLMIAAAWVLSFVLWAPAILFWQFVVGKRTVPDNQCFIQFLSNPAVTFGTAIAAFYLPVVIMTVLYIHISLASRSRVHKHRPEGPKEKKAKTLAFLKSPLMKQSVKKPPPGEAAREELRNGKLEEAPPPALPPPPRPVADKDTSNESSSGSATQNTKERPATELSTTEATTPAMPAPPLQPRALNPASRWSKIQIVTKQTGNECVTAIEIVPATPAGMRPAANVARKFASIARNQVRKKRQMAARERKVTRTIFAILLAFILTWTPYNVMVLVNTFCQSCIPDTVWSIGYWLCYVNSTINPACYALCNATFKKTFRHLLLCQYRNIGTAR
As to the kind of experiment: Alphascreen Surefire phospho-ERK1/2 functional assay, CHO cells expressing M4. To be noted: for Emax: CHO, read-out: % Emax cf. ACh, M4; for EC50: agonist, CHO cells, phospho-ERK1/2, read-out: pEC50 M4 (converted). The procedure:
(§1) ERK1/2 phosphorylation is a downstream consequence of both Gq/11 and Gi/o protein coupled receptor activation, making it highly suitable for the assessment of M1, M3 (Gq/11 coupled) and M2, M4 receptors (Gi/o coupled), rather than using different assay formats for different receptor subtypes. CHO cells stably expressing the human muscarinic M1, M2, M3 or M4 receptor were plated (25K/well) onto 96-well tissue culture plates in MEM-alpha+10% dialysed FBS. Once adhered, cells were serum-starved overnight. Agonist stimulation was performed by the addition of 5 μL agonist to the cells for 5 min (37° C.). Media was removed and 50 μL of lysis buffer added. After 15 min, a 4 μL sample was transferred to 384-well plate and 7 μL of detection mixture added.

Test [2] addresses T2, human muscarinic M3 receptor (Homo sapiens, UniProt P20309).
T2 construct: expressed in transfected cells
The experiment in a line: Alphascreen Surefire phospho-ERK1/2 functional assay, CHO cells expressing M3. To be noted: for Emax: CHO, read-out: % Emax cf. ACh, M3; for EC50: agonist, CHO cells, phospho-ERK1/2, read-out: pEC50 M3 (converted). The procedure:
as §1

Test [3] addresses T3, human muscarinic M1 receptor (Homo sapiens, UniProt P11229).
T3 construct: expressed in transfected cells
T3 sequence (P11229 1-460): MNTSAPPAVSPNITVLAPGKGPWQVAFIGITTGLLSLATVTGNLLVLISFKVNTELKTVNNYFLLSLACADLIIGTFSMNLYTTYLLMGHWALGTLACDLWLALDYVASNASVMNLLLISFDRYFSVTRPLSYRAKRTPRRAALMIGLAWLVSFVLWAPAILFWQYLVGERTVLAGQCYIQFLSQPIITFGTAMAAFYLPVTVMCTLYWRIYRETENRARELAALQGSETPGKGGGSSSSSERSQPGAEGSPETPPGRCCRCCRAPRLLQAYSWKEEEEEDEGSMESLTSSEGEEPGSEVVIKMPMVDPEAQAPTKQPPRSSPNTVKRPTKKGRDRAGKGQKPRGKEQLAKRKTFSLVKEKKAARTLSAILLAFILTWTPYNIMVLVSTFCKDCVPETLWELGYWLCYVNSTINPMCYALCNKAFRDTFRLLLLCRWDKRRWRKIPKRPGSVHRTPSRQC
The experiment in a line: Alphascreen Surefire phospho-ERK1/2 functional assay, CHO cells expressing M1. The following applies: for Emax: CHO, read-out: % Emax cf. ACh, M1; for EC50: agonist, CHO cells, phospho-ERK1/2, read-out: pEC50 M1 (converted). As to the method: as §1

Test [4] addresses T4, human muscarinic M2 receptor (Homo sapiens, UniProt P08172).
T4 construct: expressed in transfected cells
T4 sequence (P08172 1-466): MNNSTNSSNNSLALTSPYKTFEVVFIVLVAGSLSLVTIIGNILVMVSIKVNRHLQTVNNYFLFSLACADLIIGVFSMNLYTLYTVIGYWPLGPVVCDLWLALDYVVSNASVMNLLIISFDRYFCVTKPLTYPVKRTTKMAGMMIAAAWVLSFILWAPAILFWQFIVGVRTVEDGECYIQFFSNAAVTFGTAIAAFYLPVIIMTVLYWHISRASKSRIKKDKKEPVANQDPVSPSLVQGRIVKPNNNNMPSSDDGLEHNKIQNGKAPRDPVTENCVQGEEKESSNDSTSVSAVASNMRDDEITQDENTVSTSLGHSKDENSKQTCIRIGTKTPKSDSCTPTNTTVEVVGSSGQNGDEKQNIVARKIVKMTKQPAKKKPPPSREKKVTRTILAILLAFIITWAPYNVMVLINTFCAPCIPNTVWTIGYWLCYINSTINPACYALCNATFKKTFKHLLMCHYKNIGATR
As to the kind of experiment: Alphascreen Surefire phospho-ERK1/2 functional assay, CHO cells expressing M2. The following applies: for Emax: CHO, read-out: % Emax cf. ACh, M2; for EC50: agonist, CHO cells, phospho-ERK1/2, read-out: pEC50 M2 (converted). As to the method:
as §1

Structures are written as SMILES. A value given as a limit tells only on which side of the number the result lay.

T2 sequence (P20309 whole entry): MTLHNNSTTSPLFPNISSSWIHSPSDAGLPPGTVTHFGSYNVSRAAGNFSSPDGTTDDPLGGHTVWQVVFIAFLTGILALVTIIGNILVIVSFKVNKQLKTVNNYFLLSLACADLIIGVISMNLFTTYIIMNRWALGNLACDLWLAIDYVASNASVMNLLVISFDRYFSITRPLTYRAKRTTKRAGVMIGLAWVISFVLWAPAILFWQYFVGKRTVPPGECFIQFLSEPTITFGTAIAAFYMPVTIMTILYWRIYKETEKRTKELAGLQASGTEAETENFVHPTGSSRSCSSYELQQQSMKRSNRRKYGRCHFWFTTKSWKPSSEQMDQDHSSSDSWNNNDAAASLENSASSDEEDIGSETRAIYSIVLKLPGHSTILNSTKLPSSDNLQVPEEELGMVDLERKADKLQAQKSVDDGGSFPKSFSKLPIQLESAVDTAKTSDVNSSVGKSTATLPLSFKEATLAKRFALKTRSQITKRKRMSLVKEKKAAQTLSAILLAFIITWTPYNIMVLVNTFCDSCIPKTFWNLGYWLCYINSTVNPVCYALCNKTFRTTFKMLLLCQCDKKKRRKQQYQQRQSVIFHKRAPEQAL

Regarding `CCOC(=O)N1CC2(CC(N3CCC([C@@H]4CCCN4C(=O)NC)CC3)C2)C1` [Example 1-4, Ethyl 6-{4-[(2S)-1-(methylcarbamoyl)pyrrolidin-2-yl]piperidin-1-yl}-2-azaspiro[3.3]heptane-2-carboxylate], the Emax in test [1] is 97%; in test [2] it was 7%; in test [3], 71%; in test [4] it was 6%. Also, the EC50 was 0.0158 µM in test [1], greater than 20 µM in test [2], 0.794 µM in test [3] and greater than 20 µM in test [4].

For `COC(=O)N1CC2(CCC(N3CCC(N4CCC[C@@H]4c4cnco4)CC3)C2)C1` (single isomer, unassigned) [Example 2-11 (Isomer 2)], the Emax in test [1] was found to be 100%; in test [2], 4%; in test [3], 24%; in test [4], 6%. Further, the EC50 is 0.0794 µM in test [1], greater than 20 µM in test [2], greater than 20 µM in test [3] and greater than 20 µM in test [4]. Also, in test [1] (statement in words), the “selectivity for the M4 receptor relative to the M1 receptor” value is “highly selective for the M4 receptor relative to the M1 receptor”.

For `CCOC(=O)N1CC2(CCC(N3CCC(N4CC(F)(F)C[C@@H]4CO)CC3)C2)C1` (mixture of isomers) [Example 2-10 (mixture of isomers), Ethyl 6-{4-[(2R)-4,4-difluoro-2-(hydroxymethyl)pyrrolidin-1-yl]piperidin-1-yl}-2-azaspiro[3.4]octane-2-carboxylate], in test [1], the Emax amounted to 32% and the EC50 was 0.00631 µM. In test [3], the maximal response (Emax) came to 6% and the EC50 is greater than 20 µM.

Turning to `CCOC(=O)N1CC2(CC(N3CCC(N4CCC[C@@H]4c4cn(C)c(=O)o4)CC3)C2)C1` [Example 1-7, Ethyl 6-{4-[(2R)-2-(3-methyl-2-oxo-2,3-dihydro-1 ,3-oxazol-5yl)pyrrolidin-1-yl]piperidin-1-yl}-2-azaspiro[3.3]heptane-2-carboxylate], the maximal response (Emax) in test [1] was 49%; in test [2], 6%; in test [3], 12%; in test [4], 10%. The EC50 in test [1] was 0.0398 µM; in test [2] it was greater than 20 µM; in test [3], greater than 20 µM; in test [4] it was greater than 20 µM.

For `CCOC(=O)N1CC2(CCC(N3CCC(c4nccn4C)CC3)C2)C1` (racemic) [Example 2-2 (racemic), Ethyl 6-[4-(1-methyl-1H-imidazol-2-yl)piperidin-1-yl]-2-azaspiro[3.4]octane-2-carboxylate], the maximum response (Emax) in test [1] is 102%; in test [2] it was 5%; in test [3] it was 7%; in test [4] it was 7%. For the same compound, the EC50 in test [1] is 0.0316 µM; in test [2] it was greater than 20 µM; in test [3] it was 0.501 µM; in test [4], greater than 20 µM.

For `CCOC(=O)N1CC2(CCC(N3CCC(N4C(=O)CC[C@@H]4CC)CC3)C2)C1` (mixture of isomers) [Example 2-6 (mixture of isomers), Ethyl 6-{4-[(2S)-2-ethyl-5-oxopyrrolidin-1-yl]piperidin-1-yl}-2-azaspiro[3.4]octane-2-carboxylate], the Emax in test [1] was determined as 59%; in test [2], 13%; in test [3], 71%; in test [4] it was 8%. For the same compound, the EC50 in test [1] was 0.00794 µM; in test [2] it was greater than 20 µM; in test [3], 0.0158 µM; in test [4], greater than 20 µM.

Turning to `COC(=O)N1CC2(CC(N3CCC(c4nccn4C)CC3)C2)C1` [Example 1-1, Methyl 6-[4-(1-methyl-1H-imidazol-2-yl)piperidin-1-yl]-2-azaspiro[3.3]heptane-2-carboxylate], the Emax in test [1] worked out at 73%; in test [3], 113%. Besides, the EC50 in test [1] is 0.316 µM; in test [3] it was 3.16 µM.

As for `CCOC(=O)N1CC2(CCC(N3CCC([C@@H]4CCCN4C(=O)NC)CC3)C2)C1` (mixture of isomers) [Example 2-4 (mixture of isomers), Ethyl 6-{4-[(2S)-1-(methylcarbamoyl)pyrrolidin-2-yl]piperidin-1-yl}-2-azaspiro[3.4]octane-2-carboxylate], the Emax in test [1] was 56%; in test [2] it was 2%; in test [3] it was 39%; in test [4], 4%. Moreover, the EC50 was 0.00316 µM in test [1], greater than 20 µM in test [2], greater than 20 µM in test [3] and greater than 20 µM in test [4].

As to `CCOC(=O)N1CC2(CCC(N3CCC(N4CCC[C@@H]4c4cnco4)CC3)C2)C1` (single isomer, unassigned) [Example 2-12 (Isomer 2)], the Emax in test [1] came to 114%; in test [2], 5%; in test [3], 50%; in test [4], 7%. In addition, the EC50 was 0.001 µM in test [1], greater than 20 µM in test [2], 0.0316 µM in test [3] and greater than 20 µM in test [4].

For `CCOC(=O)N1CC2(CCC(N3CCC(n4cccn4)CC3)C2)C1` (racemic) [Example 2-3 (racemic), Ethyl 6-[4-(1H-pyrazol-1-yl)piperidin-1-yl]-2-azaspiro[3.4]octane-2-carboxylate], the Emax turned out to be 94% in test [1], 5% in test [2], 105% in test [3] and 2% in test [4]. Also, the EC50 in test [1] was 0.001 µM; in test [2], greater than 20 µM; in test [3], 0.00398 µM; in test [4], greater than 20 µM.

For `COC(=O)N1CC2(CCC(N3CCC(c4nccn4C)CC3)C2)C1` (racemic) [Example 2-1 (racemic)], the Emax in test [1] came out at 82%; in test [2], 9%; in test [3], 42%; in test [4], 17%. Besides, the EC50 was 0.0158 µM in test [1], greater than 20 µM in test [2], 0.126 µM in test [3] and greater than 20 µM in test [4].

Regarding `CCOC(=O)N1CC2(CC(N3CCC(N4C(=O)CC[C@@H]4C)CC3)C2)C1` [Example 1-8, Ethyl 6-{4-[(2S)-2-methyl-5-oxopyrrolidin-1-yl]piperidin-1-yl}-2-azaspiro[3.3]heptane-2-carboxylate], in test [1], the maximal effect (Emax) amounted to 78% and the EC50 is 0.2 µM. In addition, in test [3], the Emax was determined as 67% and the EC50 is 0.794 µM.

`CCOC(=O)N1CC2(CC(N3CCC(c4nccn4C)CC3)C2)C1` [Example 1-2, Ethyl 6-[4-(1-methyl-1H-imidazol-2-yl)piperidin-1-yl]-2-azaspiro[3.3]heptane-2-carboxylate]: in test [1], the Emax was 100% and the EC50 is 1.26 µM. In test [3], the Emax was 100% and the EC50 is 10 µM.

As to `CCOC(=O)N1CC2(CC(N3CCC(N4C(=O)CC[C@H]4C)CC3)C2)C1` [Example 1-9], in test [1], the Emax worked out at 117% and the EC50 was 0.158 µM. Also, in test [3], the maximum response (Emax) was determined as 101% and the EC50 is 1.58 µM.

For the origin of these results see patent US11324738B2, “Muscarinic agonists” (Heptares Therapeutics Limited, priority 2015, dated 2022).
